Reference: publication PMC3661926 (Acta Neuropathologica, 2013)
Like-named read-outs stand apart in the source and are kept apart here.

Assays:
in vivo = conditions: C57/BL6, mouse; for half-life: ip, 1 mg
physchem = conditions: water
[1] = tested on: rotenone-treated C57Bl/6J mice; conditions: mouse, in vivo
[2] = C57/BL6, mouse, in vivo
MPTP-treated mice = conditions: mouse, in vivo
[3] = target: PrP^Sc (RML prion strain) (Mus musculus, UniProt P04925); assay: biochemical
[4] = tested on: prion strains RML, ME7, 301C, sCJD, vCJD; format: biochemical, mouse and human; conditions: 1 μl of 10 mM compound solution in DMSO
[5] = mouse, in vivo, 2000 mg/kg
RML scrapie [6] = format: in vivo, C57BL/6 mice; conditions: for Median/Mean* Survival Therapy / difference of survival therapy vs control: C57BL/6, RML i.c., 250 mg/kg
[7] = rat, in vivo, 2000 mg/kg
[8] = tested on: cultured human peripheral lymphocytes
[9] = in vivo
actin = format: biochemical
PrP^Sc (vCJD prions) = PrP^Sc (vCJD prions) (Homo sapiens, UniProt P04156); assay: biochemical
RML scrapie [10] = assay: whole plant or invertebrate; format: in vivo, C57BL/6 mice
[11] = tested on: Salmonella typhimurium strains TA 98, TA 100, TA 102, TA 1535 and TA 1537

PrP^Sc (RML prion strain), sequence (P04925 23-230 limits assumed): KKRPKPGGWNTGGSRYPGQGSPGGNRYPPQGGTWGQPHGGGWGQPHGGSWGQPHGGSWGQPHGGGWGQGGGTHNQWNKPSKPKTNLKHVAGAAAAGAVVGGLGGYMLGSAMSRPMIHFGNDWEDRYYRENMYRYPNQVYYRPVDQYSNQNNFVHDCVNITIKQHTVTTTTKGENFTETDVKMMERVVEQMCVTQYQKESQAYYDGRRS

Brc1cccc(-c2cc(-c3ccc4c(c3)OCO4)n[nH]2)c1 [anle138b, 3-(1,3-benzodioxol-5-yl)-5-(3-bromophenyl)-1H-pyrazole]
Kp (in vivo): ~3
half-life (in vivo; half-life t½ in brain): 2.9 h
half-life (in vivo; half-life t½ in serum): 2.4 h
solubility (physchem): < 1 µM
1-h stool collection gut motility test [1]: complete rescue of enteric function
motor performance (Rotarod) [1]: significantly improved motor performance
AUC after oral application compared to i.p. application [2]: approximately 50%
loss of dopaminergic (TH-positive) neurons in substantia nigra (MPTP-treated mice): significantly ameliorated
EC50 [3]: 7.3 µM
inhibition at 10 µM ([3]; read-out: % inhibition PrP^Sc PMCA): 84%
inhibitory activity in PMCA, all prion strains tested [4]: strong inhibitory activity in all prion strains tested
acute toxicity, single oral administration [5]: did not reveal any signs of toxicity and no mortality
motor performance in prion infected mice (RML scrapie [6]; 160 d.p.i., arena movement tracking): unimpaired
Median/Mean* Survival Therapy (RML scrapie [6]; 0 dpi oral): 355 days
difference of survival therapy vs control (RML scrapie [6]; 0 dpi oral): 175 days
Median/Mean* Survival Therapy (RML scrapie [6]; 80 dpi oral): 242 days
difference of survival therapy vs control (RML scrapie [6]; 80 dpi oral): 74 days
Median/Mean* Survival Therapy (RML scrapie [6]; 120 dpi oral): 224 days
difference of survival therapy vs control (RML scrapie [6]; 120 dpi oral): 52 days
size distribution of PrP^Sc aggregates (sucrose-gradient centrifugation) (RML scrapie [6]; brain homogenates of treated mice, fractions 7–12): strong reduction of high molecular weight species
pyknotic nuclei, cerebellar granule cell layer (RML scrapie [6]; mouse, in vivo): significantly reduced number of pyknotic nuclei
time for which weight loss is prevented (RML scrapie [6]; treatment from 80 dpi onwards): ~ 100 days
time for which further weight loss is inhibited (RML scrapie [6]; treatment from 120 dpi): ~ 70 days
Median survival (RML scrapie [6]; treatment from day 80 post i.c. infection (5 mg daily oral)): 242,5
Median survival (RML scrapie [6]; treatment from day 120 post i.c. infection (5 mg daily oral)): 224,0
acute toxicity, single oral administration [7]: not reveal any signs of toxicity and no mortality
clastogenic activity, conclusion [8]: no indications of mutagenic properties
metabolites in brain extracts (HPLC, high resolution MS) ([9]; C57/BL6, mouse): did not identify metabolites of anle138b
conc. brain ([9]; mouse, po): 34.1 nmol/g
effect on actin polymerization (actin): do not affect actin polymerization
EC50 (PrP^Sc (vCJD prions)): 7.1 µM
% inhibition PrP^Sc in vivo (c) (RML scrapie [10]; PrP^Sc level in brain 106 days after i.c. infection, treatment 24 days: 14 days i.p. 0.84 mg, 2 × 5 days oral gavage 1 mg): 108%
% inhibition PrP^Sc in vivo (b) (RML scrapie [10]; PrP^Sc level in spleen 35 days after i.p. infection, 34 days treatment with 1 mg compound oral in peanut butter): 57%
change of PrPSc levels in brain, mixed application scheme (RML scrapie [10]; from 80 dpi: 14 days i.p. 0.84 mg, 2 x 5 days gavage 1 mg, measured at 95 and 106 dpi): decrease in PrPSc levels
inhibition in vivo at 1 mg (RML scrapie [10]; in Mus musculus, po, 2880 h, read-out: % inhibition PrP^Sc in vivo (a)): 78%
concentration with test item precipitation [11]: ≥ 100 µg/plate
cytotoxicity, preliminary test [11]: No signs of cytotoxicity
mutagenic effect (revertant colony numbers) [11]: No mutagenic effect
